# From ChEMBL document CHEMBL1909294, “Translating clinical findings into knowledge in drug safety evaluation--drug induced liver injury prediction system (DILIps)” (PLoS Comput Biol, 2011)
# Tests used:
# [1] = system: Hepatotoxicity
# Description: Drug Induced Liver Injury Prediction System (DILIps) validation dataset; compound DILI positive/negative as observed in O'Brien data
# [2] = system: Hepatotoxicity; remark: listed apart in the source
# Description: Drug Induced Liver Injury Prediction System (DILIps) validation dataset; compound DILI positive/negative as observed in Pfizer data
# [3] = system: Hepatotoxicity; remark: listed apart in the source
# Description: Drug Induced Liver Injury Prediction System (DILIps) validation dataset; compound DILI positive/negative as observed in LTKB-BD
SMILES,DILI positive/negative [1],DILI positive/negative [2],DILI positive/negative [3],other results
Nc1ccc(S(=O)(=O)Nc2ccnn2-c2ccccc2)cc1 [SULFAPHENAZOLE],1,–,–,–
C#CCN(C)Cc1ccccc1 [PARGYLINE],0,0,–,–
Nc1c(CC(=O)O)cccc1C(=O)c1ccc(Br)cc1 [BROMFENAC],–,1,1,–
CC(=O)Nc1ccc(O)cc1 [ACETAMINOPHEN],1,1,–,–
CC(C)(C)c1ccc(C(O)CCCN2CCC(C(O)(c3ccccc3)c3ccccc3)CC2)cc1 (configuration not stated) [TERFENADINE],1,0,–,–
COc1ccc(C(=O)NCc2cccnc2)cc1C(=O)NCc1cccnc1 [PICOTAMIDE],0,–,–,–
O=C(COc1ccc(Cl)cc1)N1CCN(Cc2ccc3c(c2)OCO3)CC1 [FIPEXIDE],–,1,1,–
CC(N/C(=N\C#N)Nc1ccncc1)C(C)(C)C (configuration not stated) [PINACIDIL ANHYDROUS],0,0,–,–
CNC(=O)Oc1ccc2c(c1)[C@]1(C)CCN(C)[C@@H]1N2C [PHYSOSTIGMINE],0,0,–,–
O=C(O)CCCC[C@@H]1SC[C@@H]2NC(=O)N[C@@H]21 [BIOTIN],0,0,–,–
CC[N+](C)(CC)CCOC(=O)C(O)(c1ccccc1)C1CCCCC1 (configuration not stated) [OXYPHENONIUM],0,0,–,–
C1CCC(C(CC2CCCCN2)C2CCCCC2)CC1 (configuration not stated) [PERHEXILINE],–,1,1,–
COc1cc2c(c(OC)c1OC)-c1ccc(OC)c(=O)cc1[C@@H](NC(C)=O)CC2 [COLCHICINE],1,–,–,–
CN(C)C/C=C(/c1ccc(Br)cc1)c1cccnc1 [ZIMELDINE],–,–,1,–
O=C(O)COc1ccc(C(=O)c2cccs2)c(Cl)c1Cl,–,1,1,–
CN1Cc2c(N)cccc2C(c2ccccc2)C1 (configuration not stated) [NOMIFENSINE],–,1,1,–
CC(C)NNC(=O)c1ccncc1 [IPRONIAZID],–,1,1,–
Cc1nc(C)c2c(n1)N(Cc1ccc(-c3ccccc3-c3nnn[nH]3)cc1)C(=O)CC2 [TASOSARTAN],–,1,1,–
COc1cccc2c1[C@@H]1CN(CCCCn3c(=O)[nH]c4c(sc5ncc(-c6ccccc6)nc54)c3=O)C[C@@H]1CO2 [FIDUXOSIN],–,–,1,–
O=C(c1cc(O)c(O)c(O)c1)c1ccc(O)c(O)c1O [EXIFONE],–,–,1,–
O=C(CCNNC(=O)c1ccncc1)NCc1ccccc1 [NIALAMIDE],–,–,1,–
CCN(CC)Cc1cc(Nc2ccnc3cc(Cl)ccc23)ccc1O.Cl,–,–,–,DILI positive/negative ([1]; Liver): 1
CCOC(=O)CN[C@@H](C(=O)N1CC[C@H]1C(=O)NCc1ccc(/C(N)=N\O)cc1)C1CCCCC1 [XIMELAGATRAN],–,–,1,–
CCc1oc2ccccc2c1C(=O)c1ccc(O)cc1 [BENZARONE],–,–,1,–
Cc1ncc(C[n+]2csc(CCO)c2C)c(N)n1 [THIAMINE ION],–,–,–,DILI positive/negative ([2]; Liver): 0; DILI positive/negative ([1]; Liver): 0
CC1=C(/C=C/C(C)=C/C=C/C(C)=C\C(=O)O)C(C)(C)CCC1 [ISOTRETINOIN],1,1,–,–

SMILES,DILI positive/negative [1],DILI positive/negative [2],DILI positive/negative [3],other results
CC[C@]1(O)CC[C@H]2[C@@H]3CCC4=CCCC[C@@H]4[C@H]3CC[C@@]21C,1,–,–,–
Cc1nnc(C(C)C)n1[C@@H]1C[C@H]2CC[C@@H](C1)N2CC[C@H](NC(=O)C1CCC(F)(F)CC1)c1ccccc1 [MARAVIROC],–,–,1,–
Cc1nc([N+](=O)[O-])cn1-c1ccc([N+](=O)[O-])cc1 [NITREFAZOLE],–,–,1,–
CO[C@@H]1O[C@H](CO)[C@H](O)[C@H](O[C@@H]2O[C@@H](C(=O)O)[C@@H](OC)[C@H](O)[C@H]2O)[C@H]1NC(C)=O,–,–,1,–
CN(C)CCN(Cc1cccs1)c1ccccn1,1,1,–,–
CC(COc1ccccc1)NN (configuration not stated) [PHENOXYPROPAZINE],–,–,1,–
C=C1c2cccc(O)c2C(=O)C2=C(O)[C@]3(O)C(=O)C(C(N)=O)=C(O)[C@@H](N(C)C)[C@@H]3[C@@H](O)[C@H]12 [METHACYCLINE],1,–,–,–
O[C@H]1[C@H](O)[C@@H](O)[C@H](O)[C@@H](O)[C@H]1O [INOSITOL],0,0,–,–
CC(=O)Oc1ccc(C(c2ccc(OC(C)=O)cc2)c2ccccn2)cc1 [BISACODYL],0,–,–,–
O=C1OCCN1/N=C/c1ccc([N+](=O)[O-])o1 [FURAZOLIDONE],1,1,–,–
CC(C)Cc1ccc(CC(=O)O)cc1 [IBUFENAC],–,1,1,–
CCCCC1C(=O)N(c2ccccc2)N(c2ccccc2)C1=O [PHENYLBUTAZONE],–,–,–,DILI positive/negative ([2]; Liver): 1; DILI positive/negative ([1]; Liver): 1
CCOC(=O)C(C)(C)Oc1ccc(Cl)cc1 [CLOFIBRATE],1,1,–,–
CCCCN1C(=O)[C@@H]([C@H](O)C2CCCCC2)NC(=O)C12CCN(Cc1ccc(Oc3ccc(C(=O)O)cc3)cc1)CC2 [APLAVIROC],–,–,1,–
CC(=O)Oc1ccc(C(=C2CCCCC2)c2ccc(OC(C)=O)cc2)cc1 [CYCLOFENIL],–,–,1,–
Nc1ccc(S(=O)(=O)Nc2nccs2)cc1 [SULFATHIAZOLE],–,–,–,DILI positive/negative ([3]; Liver): 1
C=CCOc1ccc(CC(=O)O)cc1Cl [ALCLOFENAC],–,–,–,DILI positive/negative ([3]; Liver): 1
O=C(O)c1cc(-c2ccccc2)nc2ccccc12 [CINCHOPHEN],–,1,1,–
Cc1ncc(CO)c(CO)c1O [PYRIDOXINE],–,–,–,DILI positive/negative ([2]; Liver): 0; DILI positive/negative ([1]; Liver): 0
CC(C)(Oc1ccc(C2CC2(Cl)Cl)cc1)C(=O)O (configuration not stated) [CIPROFIBRATE],1,1,–,–
CCCN(CCC)C(=O)Cc1c(-c2ccc(Cl)cc2)nc2ccc(Cl)cn12 [ALPIDEM],–,1,1,–
CCc1oc2ccccc2c1C(=O)c1cc(Br)c(O)c(Br)c1 [BENZBROMARONE],–,1,1,–
COc1ccc2c(C(=O)c3ccc(Cl)cc3)c(C)n(CC(=O)O)c2c1 [CLOMETACIN],–,–,1,–
C[C@H](N)C(=O)N[C@@H](C)C(=O)N[C@H]1[C@@H]2CN(c3nc4c(cc3F)c(=O)c(C(=O)O)cn4-c3ccc(F)cc3F)C[C@@H]21 [ALATROFLOXACIN],–,–,1,–
CC(NN)c1ccccc1 (configuration not stated) [MEBANAZINE],–,–,1,–
CC(C)Nc1ncccn1 [ISAXONINE],–,–,1,–

SMILES,DILI positive/negative [1],DILI positive/negative [2],DILI positive/negative [3],other results
Cc1nnc(NS(=O)(=O)c2ccc(N)cc2)s1 [SULFAMETHIZOLE],1,1,–,–
CCN(CC)CCCC(C)Nc1c2ccc(Cl)cc2nc2ccc(OC)cc12 (configuration not stated) [QUINACRINE],1,–,–,–
CC(=O)O[C@H]1C[C@@]2(C)[C@@H](C[C@@H](O)[C@H]3[C@@]4(C)CC[C@@H](O)[C@@H](C)[C@@H]4CC[C@@]32C)/C1=C(\CCC=C(C)C)C(=O)O [FUSIDIC ACID],1,–,–,–
C=C[C@H]1C[N@@]2CC[C@H]1C[C@H]2[C@H](O)c1ccnc2ccc(OC)cc12 [QUININE],1,–,–,–
C[S+](C)[O-] [DIMETHYL SULFOXIDE],0,–,–,–
CN(C)C(=O)Oc1cc(OC(=O)N(C)C)cc(C(O)CNC(C)(C)C)c1 (configuration not stated) [BAMBUTEROL],0,0,–,–
CCc1oc2ccccc2c1C(=O)c1cc(I)c(O)c(I)c1 [BENZIODARONE],–,–,1,–
CC(C(=O)O)c1ccc2oc(-c3ccc(Cl)cc3)nc2c1 (configuration not stated) [BENOXAPROFEN],–,1,1,–
O=C(OCC(O)CO)c1ccccc1Nc1ccnc2cc(Cl)ccc12 (configuration not stated) [GLAFENINE],–,–,–,DILI positive/negative ([3]; Liver): 1; DILI positive/negative ([2]; Liver): 1
C[C@H]1[C@H](c2ccccc2)OCCN1C [PHENDIMETRAZINE],–,–,0,–
COc1ccc2c(C(=S)N(C)CC(=O)O)cccc2c1C(F)(F)F [TOLRESTAT],–,–,1,–
C[N+](C)(C)CCOP(=O)(O)OP(=O)([O-])OC[C@H]1O[C@@H](n2ccc(N)nc2=O)[C@H](O)[C@@H]1O [CITICOLINE],0,0,–,–
CCCCNc1ccc(C(=O)OCCOCCOCCOCCOCCOCCOCCOCCOCCOC)cc1 [BENZONATATE],–,–,0,–
CN(C)Cc1ccc(CSCCN/C(=C\[N+](=O)[O-])NCc2ccc3c(c2)OCO3)o1 [NIPEROTIDINE],–,–,–,DILI positive/negative ([3]; Liver): 1
Cc1cc(Br)c(O)c2ncccc12 [TILBROQUINOL],–,–,1,–
CC(C(=O)O)c1ccc(N2CC=CC2)c(Cl)c1 (configuration not stated) [PIRPROFEN],–,1,1,–
CO[C@@H]1[C@@H](OC(N)=O)[C@@H](O)[C@H](Oc2ccc3c(O)c(NC(=O)c4ccc(O)c(CC=C(C)C)c4)c(=O)oc3c2C)OC1(C)C [NOVOBIOCIN],1,1,–,–
CCO[C@@H]1OC(=O)C[C@@H]1NC(=O)[C@@H]1CCCN2C(=O)CC[C@H](NC(=O)c3nccc4ccccc34)C(=O)N12,–,–,1,–
O=C(O)COc1nn(Cc2ccccc2)c2ccccc12 [BENDAZAC],–,–,–,DILI positive/negative ([3]; Liver): 1
O=C(O)Cc1csc(-c2ccc(Cl)cc2)n1 [FENCLOZIC ACID],–,–,1,–
CN1c2c(oc(=O)n(-c3ccccn3)c2=O)-c2ccccc2S1(=O)=O [DROXICAM],–,–,1,–
CC1=NN(c2ccc(C)c(C)c2)C(=O)/C1=N\Nc1cccc(-c2cccc(C(=O)O)c2)c1O [ELTROMBOPAG],–,–,–,DILI positive/negative ([3]; Liver): 1
NCCO [MONOETHANOLAMINE],–,–,0,–
NC(=O)C1CCN(CCCN2c3ccccc3Sc3ccc(Cl)cc32)CC1 [PIPAMAZINE],–,–,1,–
CCN(CC)C(=O)N1CCN(C)CC1 [DIETHYLCARBAMAZINE],1,1,–,–
